Measured values published in patent US20190374628A1, “MUTATED FRAGMENTS OF THE RAS PROTEIN” (Targovax ASA, priority 2015, published 2019).
Where “and” joins values, the source holds several entries; their conditions need not be identical. Equal entries are not always repeated.

What was measured:
T-cells = experiment: 3-days T-cell proliferation assay (3H-thymidine) after three rounds of in vitro stimulation of PBMC bulk cultures with RAS peptides; type: cell-based, human; details: bulk cultures stimulated three rounds with TG02 + 13R, 10 μM peptide
Method: In this example, Buffy coats were collected from 4 normal human donors (Buffy 1, Buffy 2, Buffy 3, and Buffy 4) and were cultured in vitro. The in vitro PBMCs were stimulated with a single RAS peptide or a mixture of RAS peptides, and T-cell proliferation assays performed.
The procedure must be performed at room temperature until point 5. All handling of cells in the open is done in a vertical laminar flow hood. • 1. Rapidly transfer the vials, each vial with frozen PBMC from a buffy coat (Buffy 1, Buffy 2, Buffy 3, and Buffy 4), to a water bath at 37° C. • 2. Shake the vials manually at regular intervals (approx. 2-3 min.) and remove them from the water bath while some ice is still present. • 3. When all the ice is melted, transfer 1 ml of CellGro DC medium drop-wise to the cell suspension. • 4. Transfer the cell suspension to a 50 ml tube containing 20 ml of CellGro DC medium. • 5. Centrifuge cells at 500G for 5 min at room temperature. • 6. Resuspend the cells in 5 ml CellGro DC medium. • 7. Count the number of viable cells using a Burker chamber or KOVA Galsstic slides and adjust the cell concentration to 2×10^6 cells/ml in complete CellGro DC medium (see recipe). Total cell numbers: Buffy 1-45×10^6, Buffy 2-27.5×10^6, Buffy 3-40.5×10^6, and Buffy 4-40.5×10^6 cells.
b. Bulk cultures for increasing number of RAS peptide reactive T-cells • 1. […]

any RAS mutation = details: cited from earlier work

Substance | Counts per minute (CPM), APC + T-cell + 13 C (T-cells; Donor #3, single replicates) | Mean counts per minute (CPM), APC + T-cell + 13 C (T-cells; Mean Donor #3) [CPM] | Outcome of treatment in patients having any RAS mutation (any RAS mutation)
KLVVVGAGCVGKSALTI (listed as Homo sapiens) [13C, RAS peptide of the peptide mixture having a G13C mutation] | 27813 CPM and 32522 CPM and 28869 CPM | 29735 | 
paitumumab-FOLFOX4: panitumumab (printed paitumumab) in combination with FOLFOX4 chemotherapy |  |  | may even be harmed
